Measurements taken from PMC7413308 (ARKIVOC : free online journal of organic chemistry, 2018).
Where “and” joins values, the source holds several entries; their conditions need not be identical. Equal values may be shown once.

Experiments:
HEPG2 (liver) cell line = assay: In vitro cytotoxicity, cell viability; format: cell-based; settings: 48 h incubation, Cell-Titer Glo cell viability
[1] = In vitro microsomal stability of analogs; format: in vitro ADME, mouse; settings: for half-life / remaining at 1 h / remaining at 2 h: mouse, liver microsomes; for remaining at 1 h / remaining at 2 h: Microsomal stability (MLM) % remaining
[2] = In vitro microsomal stability of analogs; format: in vitro ADME, human; settings: for half-life / remaining at 1 h / remaining at 2 h: human, liver microsomes; for remaining at 1 h / remaining at 2 h: Microsomal stability (HLM) % remaining
[3] = tested on: HEK293 (kidney) cell line; assay: In vitro cytotoxicity, cell viability; format: cell-based; settings: 48 h incubation, Cell-Titer Glo cell viability
mice = assay: Sensorimotor coordination on rotating rod after oral gavage; format: in vivo; settings: oral gavage 40 mg/kg, rotating rod max 3 minutes, three time-points
Procognitive assay = format: in vivo; settings: data only preliminary
[4] = footnote d: assessed at 1-hour incubation time
[5] = footnote a: compound not detected after 10 minutes

Compound	HEPG2 LD50 (HEPG2 (liver) cell line)	half-life [1]	half-life [2]	HEK293 LD50 [3]	remaining at 2 h ([1]; after 2 hr)	remaining at 2 h ([2]; after 2 hr)	also measured
C#Cc1ccc2c(c1)C(c1ccccc1F)=N[C@@H](C)c1c(C(=O)OC(C)(C)C)ncn1-2 [5d, (S)-tert-Butyl-8-ethynyl-6-(2-fluorophenyl)-4-methyl-4H-benzo[f]imidazo[1,5-a][1,4]diazepine-3-carboxylate]	21.4 ± 1.9 µM	3.27 ± 0.333 h	8.57 ± 1.92 h	–	–	–	remaining at 1 h [1, 4]: 78 ± 0.2%; remaining at 1 h [2, 4]: 89 ± 0.2%
C#Cc1ccc2c(c1)C(c1ccccc1F)=N[C@@H](C)c1c(C(=O)OC(C)(C)CC)ncn1-2 [5e, (S)-tert-Pentyl-8-ethynyl-6-(2-fluorophenyl)-4-methyl-4H-benzo[f]imidazo[1,5-a][1,4]diazepine-3-carboxylate]	17.1 ± 1.4 µM	–	–	17.2 ± 1.6 µM	–	–	–
C#Cc1ccc2c(c1)C(c1ccccc1F)=N[C@@H](C)c1c(C(=O)NC3CC3)ncn1-2 [8c, (S)-N-Cyclopropyl-8-ethynyl-6-(2-fluorophenyl)-4-methyl-4H-benzo[f]imidazo[1,5-a][1,4]diazepine-3-carbox-amide]	93.5 ± 5.7 µM	–	–	63.8 ± 3.0 µM	–	–	Microsomal stability (MLM) % remaining [1, 4]: 72.0 ± 0.3^d %; Microsomal stability (MLM) Half-life [1, 4]: 320 ± 34^d min; Microsomal stability (HLM) % remaining [2, 4]: 89.0 ± 0.4^d %; Microsomal stability (HLM) Half-life [2, 4]: 1625 ± 803^d min
COC(=O)c1ncn2c1[C@H](C)N=C(c1ccccc1F)c1cc(Br)ccc1-2 [4a, (S)-Methyl-8-bromo-6-(2-fluorophenyl)-4-methyl-4H-benzo[f]imidazo[1,5-a][1,4]diazepine-3-carboxylate]	–	1.93 ± 0.217 h	0.167 ± 0.0167 h	98.5 ± 7.9 µM	41 ± 0.6%	–	remaining at 1 h [2, 4]: 2 ± 0.3%
C#Cc1ccc2c(c1)C(c1ccccc1F)=N[C@@H](C)c1c(C(=O)SCC)ncn1-2 [compound 7, (S)-S-Ethyl-8-ethynyl-6-(2-fluorophenyl)-4-methyl-4H-benzo[f]imidazo[1,5-a][1,4]diazepine-3-carbothioate]	30.2 ± 9.7 µM	–	–	20.5 ± 4.7 µM	–	–	Microsomal stability (MLM) % remaining ([1]; after 2 hr): 9.0 ± 0.5%; Microsomal stability (MLM) Half-life ([1]; after 2 hr): 46 ± 6 min; Microsomal stability (HLM) % remaining ([2]; after 2 hr): 28.0 ± 0.3%; Microsomal stability (HLM) Half-life ([2]; after 2 hr): 101 ± 19 min
C#Cc1ccc2c(c1)C(c1ccccc1F)=N[C@@H](C)c1c(C(=O)NC(C)(C)C)ncn1-2 [8e, (S)-N-(tert-Butyl)-8-ethynyl-6-(2-fluorophenyl)-4-methyl-4H-benzo[f]imidazo[1,5-a][1,4]diazepine-3-carbox-amide]	43.4 ± 4.0 µM	–	–	33.6 ± 3.0 µM	–	–	Microsomal stability (MLM) % remaining ([1]; after 2 hr): 52.0 ± 0.3%; Microsomal stability (MLM) Half-life ([1]; after 2 hr): 142 ± 9 min; Microsomal stability (HLM) % remaining ([2]; after 2 hr): 63.0 ± 0.3%; Microsomal stability (HLM) Half-life ([2]; after 2 hr): 205 ± 14 min; Effect on sensorimotor coordination (motor impairment, sedation/ataxia) (mice): did not show any motor impairment
CCOC(=O)c1ncn2c1[C@H](C)N=C(c1ccccc1F)c1cc(C3CC3)ccc1-2 [compound 3, (S)-Ethyl-8-cyclopropyl-6-(2-fluorophenyl)-4-methyl-4H-benzo[f]imidazo[1,5-a][1,4]diazepine-3-carboxylate]	87.0 ± 6.6 µM	0.767 ± 0.05 h	< 0.0833 h	58.0 ± 6.0 µM	16 ± 0.4%	–	–
C#Cc1ccc2c(c1)C(c1ccccc1F)=N[C@@H](C)c1c(C(=O)NC)ncn1-2 [8a, (S)-8-Ethynyl-6-(2-fluorophenyl)-N,4-dimethyl-4H-benzo[f]imidazo[1,5-a][1,4]diazepine-3-carboxamide]	–	–	–	–	86 ± 0.2%	92 ± 0.3%	–
C#Cc1ccc2c(c1)C(c1ccccc1F)=N[C@@H](C)c1c(C#N)ncn1-2 [compound 10, (S)-8-Ethynyl-6-(2-fluorophenyl)-4-methyl-4H-benzo[f]imidazo[1,5-a][1,4]diazepine-3-carbonitrile]	57.1 ± 5.6 µM	0.967 ± 0.1 h	0.683 ± 0.0833 h	81.6 ± 6.7 µM	16%	9 ± 0.3%	Microsomal stability (MLM) % remaining ([1]; after 2 hr): 17.0 ± 0.6%
C#Cc1ccc2c(c1)C(c1ccccc1F)=N[C@@H](C)c1c(C(=O)NCC)ncn1-2 [8b, (S)-N-Ethyl-8-ethynyl-6-(2-fluorophenyl)-4-methyl-4H-benzo[f]imidazo[1,5-a][1,4]diazepine-3-carboxamide]	65.4 ± 7.3 µM	32.7 ± 0.767 h	33 ± 0.833 h	95.5 ± 12.6 µM	> 92%	> 92%	–
C#Cc1ccc2c(c1)C(c1ccccc1F)=N[C@@H](C)c1c(C(=O)OCCC)ncn1-2 [5b, (S)-Propyl-8-ethynyl-6-(2-fluorophenyl)-4-methyl-4H-benzo[f]imidazo[1,5-a][1,4]diazepine-3-carboxylate]	56.3 ± 4.0 µM	0.4 h	< 0.0833 h	53.2 ± 4.4 µM	–	–	remaining at 1 h [1, 4]: 12 ± 0.2%
C#Cc1ccc2c(c1)C(c1ccccc1F)=N[C@@H](C)c1c(C(=O)O)ncn1-2 [compound 6, (S)-8-Ethynyl-6-(2-fluorophenyl)-4-methyl-4H-benzo[f]imidazo[1,5-a][1,4]diazepine-3-carboxylic acid]	>400 µM	2.32 ± 0.183 h	5.97 ± 0.933 h	>400 µM	–	74 ± 0.4%	remaining at 1 h [1, 4]: 54 ± 0.3%
C#Cc1ccc2c(c1)C(c1ccccc1F)=N[C@@H](C)c1c(-c3nc(C)no3)ncn1-2 [9a, (S)-5-(8-Ethynyl-6-(2-fluorophenyl)-4-methyl-4H-benzo[f]imidazo[1,5-a][1,4]diazepin-3-yl)-3-methyl-1,2,4-oxadiazole]	–	–	–	69.3 ± 2.3 µM	81 ± 0.4%	86 ± 0.3%	Procognitive effects in the Y-maze paradigm (Procognitive assay): procognitive effects (C+); Effect on sensorimotor coordination (motor impairment, sedation/ataxia) (mice): did not exhibit motor impairments
C#Cc1ccc2c(c1)C(c1ccccc1F)=N[C@@H](C)c1c(C(=O)OC)ncn1-2 [5a, (S)-Methyl-8-ethynyl-6-(2-fluorophenyl)-4-methyl-4H-benzo[f]imidazo[1,5-a][1,4]diazepine-3-carboxylate]	–	3.6 ± 0.467 h	1.98 ± 0.35 h	68.2 ± 4.3 µM	62 ± 0.5%	–	remaining at 1 h [2, 4]: 43 ± 0.4%
C#Cc1ccc2c(c1)C(c1ccccc1F)=N[C@@H](C)c1c(C(=O)OCC(F)(F)F)ncn1-2 [5f, (S)-2,2,2-Trifluoroethyl-8-ethynyl-6-(2-fluorophenyl)-4-methyl-4H-benzo[f]imidazo[1,5-a][1,4]diazepine-3-carboxylate]	>400 µM	< 0.0833 h	< 0.0833 h	138 µM and 138.1 ± 31.8 µM	–	–	–
C#Cc1ccc2c(c1)C(c1ccccc1F)=N[C@@H](C)c1c(C(=O)OC(C)C)ncn1-2 [5c, (S)-Isopropyl-8-ethynyl-6-(2-fluorophenyl)-4-methyl-4H-benzo[f]imidazo[1,5-a][1,4]diazepine-3-carboxylate]	39.9 ± 2.8 µM	3.78 ± 0.267 h	0.95 ± 0.0333 h	48.9 ± 4.4 µM	–	–	remaining at 1 h [1, 4]: 83 ± 0.1%; remaining at 1 h [2, 4]: 47 ± 0.2%
C#Cc1ccc2c(c1)C(c1ccccc1F)=N[C@@H](C)c1c(-c3nc(C(C)C)no3)ncn1-2 [9c, (S)-5-(8-Ethynyl-6-(2-fluorophenyl)-4-methyl-4H-benzo[f]imidazo[1,5-a][1,4]diazepin-3-yl)-3-isopropyl-1,2,4-oxadiazole]	21.7 ± 1.8 µM	8.33 ± 1.82 h	43.1 ± 32 h	32.5 ± 7.6 µM	79 ± 0.5%	91 ± 0.3%	Effect on sensorimotor coordination (motor impairment, sedation/ataxia) (mice): exhibited no sensorimotor impairment
C#Cc1ccc2c(c1)C(c1ccccc1F)=N[C@@H](C)c1c(C(=O)OC3CC3)ncn1-2 [5g, (S)-Cyclopropyl-8-ethynyl-6-(2-fluorophenyl)-4-methyl-4H-benzo[f]imidazo[1,5-a][1,4]diazepine-3-carboxyl-ate]	85.1 ± 3.8 µM	–	–	35.8 ± 3.3 µM	–	–	Microsomal stability (MLM) % remaining [1, 4]: 11.0 ± 0.2^d %; Microsomal stability (MLM) Half-life [1, 4]: 19 ± 2^d min; % remaining in HLM ([2]; after 10, 20, and 30 minutes in HLM): less than 5%; Microsomal stability (HLM) % remaining [2, 5]: < 5.0^a %; Microsomal stability (HLM) Half-life [2, 5]: < 5^a min
C#Cc1ccc2c(c1)C(c1ccccc1F)=N[C@@H](C)c1c(-c3nc(CC)no3)ncn1-2 [9b, (S)-3-Ethyl-5-(8-ethynyl-6-(2-fluorophenyl)-4-methyl-4H-benzo[f]imidazo[1,5-a][1,4]diazepin-3-yl)-1,2,4-oxadiazole]	35.1 ± 3.7 µM	3.55 ± 0.283 h	9.38 ± 2.05 h	46.9 ± 6.6 µM	63 ± 0.3%	80 ± 0.4%	Effect on sensorimotor coordination (motor impairment, sedation/ataxia) (mice): exhibited no sensorimotor impairment
C#Cc1ccc2c(c1)C(c1ccccc1F)=N[C@@H](C)c1c(C(=O)NC(C)C)ncn1-2 [8d, (S)-8-Ethynyl-6-(2-fluorophenyl)-N-isopropyl-4-methyl-4H-benzo[f]imidazo[1,5-a][1,4]diazepine-3-carboxa-mide]	56.9 ± 4.8 µM	–	–	80.2 ± 11.1 µM	–	–	Microsomal stability (MLM) % remaining ([1]; after 2 hr): 75.0 ± 0.3%; Microsomal stability (HLM) % remaining ([2]; after 2 hr): 38.0 ± 0.5%; Microsomal stability (HLM) Half-life ([2]; after 2 hr): 107 ± 10 min; Effect on sensorimotor coordination (motor impairment, sedation/ataxia) (mice): did not show any motor impairment
